The target of experiment [1] is T1, Calpain-2 catalytic subunit (Sus scrofa, UniProt P43367).
T1 sequence (P43367 whole entry): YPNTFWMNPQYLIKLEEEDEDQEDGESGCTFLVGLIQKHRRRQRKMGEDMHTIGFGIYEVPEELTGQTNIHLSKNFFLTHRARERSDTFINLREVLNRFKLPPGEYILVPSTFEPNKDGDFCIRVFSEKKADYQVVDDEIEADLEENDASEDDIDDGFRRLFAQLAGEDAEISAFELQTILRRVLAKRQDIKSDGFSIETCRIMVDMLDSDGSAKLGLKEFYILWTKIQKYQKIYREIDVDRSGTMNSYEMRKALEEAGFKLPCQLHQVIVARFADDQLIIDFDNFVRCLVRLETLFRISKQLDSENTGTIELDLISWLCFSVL
The experiment in a line: pig calpain II inhibitor potency, dose response, biochemical, fluorogenic peptide substrate (AID 1420). The experiment is classed as functional.

In experiment [2] the test system is HEK293. The experiment in a line: inhibitors of LMP1-driven NF-kB reporter, dose response, cell-based, HEK293, luciferase, cherry-pick (AID 588343). The class given is functional, Homo sapiens. As to conditions: Homo sapiens, HEK293.
Experiment [3] is described as follows: inhibitors of SNCA 5'UTR-driven reporter translation, confirmation, H4 neuroglioma cells, luminescence (AID 1988). The experiment is classed as functional, cell-based.
The nature of experiment [4]: Luminescence Cell-Based Dose Response HTS to Identify Inhibitors of 5'UTR Stem-Loop Driven Prion Protein mRNA Translation in H4 Neuroglioblastoma Cells. [Related pubchem assays: 1827 (Project Summary), 1813 (Primary HTS)]. The class given is functional.
The nature of experiment [5]: cytotoxicity in OVCAR8 ovarian cancer cells, dose response, PAX8 project, cell-based, plate reader, dry powder samples (AID 743197). The experiment is classed as functional. Particulars: OVCAR-8.
The target of experiment [6] is Paired box protein Pax-8 (Homo sapiens, UniProt Q06710). The experiment in a line: inhibitors of PAX8-driven TPO luciferase reporter, dose response, RMG-I cells, cherry-pick (AID 687027).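 Also: luciferase reporter driven by Pax8 target thyroperoxidase promoter measured by SteadyGlo luminescence.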 The experiment is classed as functional, cell-based.
For experiment [7], the target named is FAD-linked sulfhydryl oxidase ALR (Homo sapiens, UniProt P55789). The experiment in a line: inhibitors of human ALR sulfhydryl oxidase, dose response, biochemical, H2O2 detection, luminescence, cherry-pick (AID 493248).
Experiment [8] addresses Prothrombin (Homo sapiens, UniProt P00734). The experiment in a line: Thrombin 1536 HTS Dose Response Confirmation. [Related pubchem assays: 1046 (Thrombin 1536 HTS; hits were confirmed in this assay)]. The experiment is classed as functional.
A short description of experiment [9]: cells. The class given is functional.
Experiment [10] is described as follows: Vero E6 cell cytotoxicity, dose response, cytotoxicity control for non-replicating M. tuberculosis project, secondary assay (AID 492998). The experiment is classed as functional, VeroE6. Particulars: Vero C1008.
Experiment [11] can be described thus: THP-1 cell cytotoxicity, dose response, cytotoxicity control for non-replicating M. tuberculosis project (AID 489025). The class given is functional.
Experiment [12] can be described thus: NIH-3T3 fibroblast cytotoxicity, dose response, cytotoxicity control, cell-based, fluorescence, Alamar Blue, secondary assay (AID 2327).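 Also: NIH-3T3 mouse fibroblasts cultured with fluconazole at 8 µg/mL.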 The class given is functional. For orientation: Resazurin is reduced to fluorescent resorufin, in cell work by metabolically active cells.
Experiment [13] in a line: inhibitors of intracellular T. cruzi replication, confirmation, NIH3T3 host cells, beta-gal luminescence (AID 2044).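 Also: intracellular parasites grown in NIH/3T3 mouse fibroblasts as host cells; luminescent beta-galactosidase reporter signal from transgenic T. cruzi replicating inside host cells; inhibitors lower the luminescence signal.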 The experiment is classed as functional, cell-based.
A short description of experiment [14]: cytotoxicity toward NIH3T3 fibroblasts, dose response, counter-screen, cell-based, ATP luminescence, mouse fibroblasts (AID 2010).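 Also: cells exposed to compound for about 90 hours before reading.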 The experiment is classed as functional. (In general: Counterscreens check selectivity or assay interference.)
Experiment [15] deals with T2, Rac GTPase-activating protein 1 (Homo sapiens, UniProt Q9H0H5).
T2 sequence (Q9H0H5 whole entry): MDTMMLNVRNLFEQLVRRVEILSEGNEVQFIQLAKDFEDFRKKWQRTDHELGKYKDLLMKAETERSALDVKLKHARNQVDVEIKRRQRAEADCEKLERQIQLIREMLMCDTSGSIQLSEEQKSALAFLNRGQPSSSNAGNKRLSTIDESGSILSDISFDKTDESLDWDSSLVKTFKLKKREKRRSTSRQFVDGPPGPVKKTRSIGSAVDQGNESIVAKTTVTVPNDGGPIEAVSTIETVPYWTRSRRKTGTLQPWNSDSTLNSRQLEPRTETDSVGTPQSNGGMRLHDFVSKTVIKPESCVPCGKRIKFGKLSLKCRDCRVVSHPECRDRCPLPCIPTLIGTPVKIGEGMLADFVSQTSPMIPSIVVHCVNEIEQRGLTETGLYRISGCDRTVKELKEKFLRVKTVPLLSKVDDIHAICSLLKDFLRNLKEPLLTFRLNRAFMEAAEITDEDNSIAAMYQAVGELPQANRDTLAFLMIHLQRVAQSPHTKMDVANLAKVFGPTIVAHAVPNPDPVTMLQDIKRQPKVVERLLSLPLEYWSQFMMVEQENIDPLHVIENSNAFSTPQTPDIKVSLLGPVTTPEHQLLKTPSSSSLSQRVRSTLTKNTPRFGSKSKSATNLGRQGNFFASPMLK
In words: MgcRacGAP GTPase-activating activity inhibitors, confirmation, biochemical, ADP Hunter fluorescence, primary and confirmatory (AID 624330). The experiment is classed as functional.

Experiment [16] has as its target T3, Histone-lysine N-methyltransferase NSD2 (Homo sapiens, UniProt O96028).
T3 sequence (O96028 whole entry): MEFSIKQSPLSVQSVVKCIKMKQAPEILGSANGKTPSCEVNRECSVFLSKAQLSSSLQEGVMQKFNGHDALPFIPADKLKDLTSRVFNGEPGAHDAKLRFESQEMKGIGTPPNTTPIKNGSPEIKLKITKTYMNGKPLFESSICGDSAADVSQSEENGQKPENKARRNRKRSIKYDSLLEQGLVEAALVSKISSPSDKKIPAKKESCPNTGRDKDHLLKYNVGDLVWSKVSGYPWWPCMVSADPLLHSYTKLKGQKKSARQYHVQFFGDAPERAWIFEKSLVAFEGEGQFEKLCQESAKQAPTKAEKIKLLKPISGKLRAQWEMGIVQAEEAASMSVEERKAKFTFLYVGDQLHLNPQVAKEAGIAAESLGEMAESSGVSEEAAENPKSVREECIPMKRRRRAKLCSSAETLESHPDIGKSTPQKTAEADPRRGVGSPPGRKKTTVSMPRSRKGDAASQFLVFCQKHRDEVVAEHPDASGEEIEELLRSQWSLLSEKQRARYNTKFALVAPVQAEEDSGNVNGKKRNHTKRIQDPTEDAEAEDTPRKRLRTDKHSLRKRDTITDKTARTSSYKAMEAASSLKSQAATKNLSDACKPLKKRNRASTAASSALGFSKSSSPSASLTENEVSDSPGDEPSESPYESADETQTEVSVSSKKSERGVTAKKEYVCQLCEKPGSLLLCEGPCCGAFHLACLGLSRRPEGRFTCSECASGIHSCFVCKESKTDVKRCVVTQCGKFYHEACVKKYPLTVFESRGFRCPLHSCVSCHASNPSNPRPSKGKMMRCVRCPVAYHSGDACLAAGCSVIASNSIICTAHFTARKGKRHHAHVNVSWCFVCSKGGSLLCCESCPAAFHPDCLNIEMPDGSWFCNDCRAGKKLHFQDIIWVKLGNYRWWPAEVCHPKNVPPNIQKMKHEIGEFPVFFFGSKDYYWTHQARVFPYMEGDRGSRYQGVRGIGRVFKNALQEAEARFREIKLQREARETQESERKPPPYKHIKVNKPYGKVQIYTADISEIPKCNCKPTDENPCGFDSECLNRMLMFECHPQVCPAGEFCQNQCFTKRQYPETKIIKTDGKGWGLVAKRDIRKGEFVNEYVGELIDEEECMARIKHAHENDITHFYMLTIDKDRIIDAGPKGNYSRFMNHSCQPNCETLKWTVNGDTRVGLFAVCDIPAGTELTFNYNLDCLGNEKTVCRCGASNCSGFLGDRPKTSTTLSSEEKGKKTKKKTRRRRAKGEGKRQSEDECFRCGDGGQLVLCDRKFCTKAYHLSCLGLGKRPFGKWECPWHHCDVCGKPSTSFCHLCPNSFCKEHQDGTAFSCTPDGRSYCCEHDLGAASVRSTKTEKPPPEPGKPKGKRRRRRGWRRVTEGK
The class given is biochemical.

Experiment [17] addresses Large T antigen (Simian virus 40, UniProt P03070). The experiment is classed as functional, Betapolyomavirus macacae.
Experiment [18] relates to H9c2. The experiment in a line: cells. The experiment is classed as functional, cell-based. Particulars: Rattus norvegicus, H9c2, Myocardium.

Active and inactive are the calls of the source.

In general, IC50 refers to the concentration at which inhibition is half-maximal. What is called AC50 is the midpoint of the concentration-response curve, whichever way the signal moves. One may read the EC50 as the concentration giving half of the maximal effect. As usually defined, the CC50 is the concentration giving 50% cytotoxicity.

Paired box protein Pax-8, sequence (Q06710 whole entry): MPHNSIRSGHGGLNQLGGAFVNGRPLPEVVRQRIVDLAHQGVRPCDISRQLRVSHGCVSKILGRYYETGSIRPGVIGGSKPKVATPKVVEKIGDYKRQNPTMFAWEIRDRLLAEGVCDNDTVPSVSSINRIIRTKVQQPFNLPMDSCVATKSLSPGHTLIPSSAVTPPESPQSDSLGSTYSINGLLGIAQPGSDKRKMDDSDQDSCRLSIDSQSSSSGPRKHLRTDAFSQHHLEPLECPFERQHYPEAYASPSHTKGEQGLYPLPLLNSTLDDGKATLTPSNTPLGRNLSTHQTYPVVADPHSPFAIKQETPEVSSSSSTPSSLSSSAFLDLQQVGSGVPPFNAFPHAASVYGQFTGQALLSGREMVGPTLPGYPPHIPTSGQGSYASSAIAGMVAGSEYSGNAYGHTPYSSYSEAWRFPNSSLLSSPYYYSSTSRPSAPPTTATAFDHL
FAD-linked sulfhydryl oxidase ALR, sequence (P55789 whole entry): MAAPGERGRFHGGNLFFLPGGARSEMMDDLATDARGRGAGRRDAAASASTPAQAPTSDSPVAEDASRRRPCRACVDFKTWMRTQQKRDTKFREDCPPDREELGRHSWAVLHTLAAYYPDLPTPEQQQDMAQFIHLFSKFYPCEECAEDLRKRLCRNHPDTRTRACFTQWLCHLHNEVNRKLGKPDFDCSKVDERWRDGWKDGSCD
Large T antigen, sequence (P03070 whole entry): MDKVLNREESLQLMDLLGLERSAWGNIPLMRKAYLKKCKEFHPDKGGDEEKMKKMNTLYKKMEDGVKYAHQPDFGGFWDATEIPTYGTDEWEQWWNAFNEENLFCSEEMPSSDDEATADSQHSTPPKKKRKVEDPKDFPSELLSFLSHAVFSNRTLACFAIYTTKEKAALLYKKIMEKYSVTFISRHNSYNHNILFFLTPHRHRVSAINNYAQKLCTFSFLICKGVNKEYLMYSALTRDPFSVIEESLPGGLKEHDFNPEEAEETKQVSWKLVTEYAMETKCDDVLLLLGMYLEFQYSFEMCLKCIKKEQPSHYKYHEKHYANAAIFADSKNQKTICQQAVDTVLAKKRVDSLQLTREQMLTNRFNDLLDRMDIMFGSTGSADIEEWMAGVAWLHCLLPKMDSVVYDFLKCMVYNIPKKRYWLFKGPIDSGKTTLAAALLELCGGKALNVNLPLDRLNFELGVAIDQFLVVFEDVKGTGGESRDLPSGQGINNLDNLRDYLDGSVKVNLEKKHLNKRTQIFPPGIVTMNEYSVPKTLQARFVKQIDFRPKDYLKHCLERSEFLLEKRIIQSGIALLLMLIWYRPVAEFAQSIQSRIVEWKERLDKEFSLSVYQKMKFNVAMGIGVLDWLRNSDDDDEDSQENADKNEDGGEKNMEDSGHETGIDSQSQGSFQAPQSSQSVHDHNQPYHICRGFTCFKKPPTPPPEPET

On to `CC(=O)C(=NNc1ccc(-n2ccc(C(F)(F)F)n2)cc1)C(C)=O`, for which, in [1], the IC50 was 2.57 µM (active).

Turning to `Cc1ccc(/C=C/c2nc3ccccc3s2)s1`, the AC50 in experiment [2] was 4.16 µM (active). Besides, the EC50 in [3] is 3.78 µM (active); in [4], 10.7 µM (active).

With `C[C@@H]1CN([C@@H](C)CO)C(=O)c2c(c3ccccc3n2C)-c2ccccc2CO[C@H]1CN(C)S(=O)(=O)c1ccccc1F`, the AC50 in [5] is > 70 µM (inactive); in experiment [6], 5.88 µM (active).

Take `Cc1cc(Oc2ncccc2[N+](=O)[O-])c2cc(Cl)ccc2n1`: the AC50 in [7] is 0.409 µM (active).

In the case of `O=C(c1nc2ccccc2s1)N1CCN(c2ccccn2)CC1`, the IC50 in experiment [8] was > 50 µM (not active).

As to `CS(=O)(=O)c1ccc(C(=O)N2CCc3ccccc3C2)cc1`, the IC50 in experiment [1] was 0.514 µM (not active).

As for `C/C(=N\Nc1nc2ccccc2nc1C)c1ccccc1O`, in experiment [9], the IC50 was 2.54 µM (active). For the same molecule, the CC50 in [10] is > 20 µM (active); in [11], > 40 µM (active).

In the case of `Cc1cccc(NC(=O)c2cnc3ccccn3c2=O)c1`, the AC50 in [2] is 2.26 µM (active).

As to `CCc1ccc(N2CC(C(=O)Nc3ccccc3F)CC2=O)cc1` (stereo unspecified), the IC50 in experiment [8] is recorded as > 50 µM (not active).

With `COC(=O)c1ccc(NC2CC(=O)N(c3ccccc3C)C2=O)cc1` (stereo unspecified), in [8], the IC50 was > 50 µM (not active).

Turning to `O=C(CN1C(=O)CCC1=O)NNc1ccc2ccccc2c1`, the EC50 in [12] was 3.62 µM (active). Besides, the AC50 in [7] was 0.09 µM (active).

In the case of `C/C(=N\Nc1cccc(Cl)c1)c1ccncc1`, the figures for the EC50 in [13] and in experiment [14] were 1.42 µM (active) and > 60 µM (not active), respectively. Besides, the AC50 in experiment [7] was 0.536 µM (active).

Take `COc1cccc(S(=O)(=O)N(C)C[C@@H]2Oc3cc(C4=CCCCC4)ccc3S(=O)(=O)N([C@@H](C)CO)C[C@H]2C)c1`: the AC50 was 49.6 µM (active) in experiment [5] and 14.5 µM (active) in experiment [6].

Turning to `Cc1ccn2c(NC3CCCC3)c(-c3ccncc3)nc2c1`, the AC50 in experiment [7] is 1.45 µM (active). Further, the IC50 in [15] is 55.3 µM (active).

Consider `CCNCCNc1ccc(Cl)cc1[N+](=O)[O-]`, for which the AC50 in [16] was > 20 µM (inactive).

With `COc1cc(OC)cc(C(=O)n2cnnc2N)c1`, the IC50 in experiment [8] was 0.1 µM (active).

In the case of `COc1cc(/C=N/Nc2nc3ccccc3o2)cc(OC)c1O`, the IC50 in experiment [17] was 8.87 µM (active). Moreover, the AC50 in [7] is 0.025 µM (active).

Take `Cc1nc(-[n+]2nc(-c3ccncc3)nn2-c2ccccc2)sc1C`: in experiment [16], the AC50 was > 20 µM (inactive).

In the case of `CN(C)c1ccc(C2N(c3ccc(F)cc3)C(=O)C3CCCN32)cc1` (stereo unspecified), the AC50 in experiment [7] is 49.4 µM (active).

For `Cc1ccc2c(c1)CCCN2CC(=O)N(C)c1c(N)n(Cc2ccccc2)c(=O)[nH]c1=O`, the AC50 in [7] is 20 µM (active).

Turning to `O=C(O)c1cccc(NC(=S)NC(=O)c2ccc(-c3ccccc3)cc2)c1`, the IC50 in [1] is > 50 µM (not active).

In the case of `Cc1ccc(S(=O)(=O)N(C)C[C@@H]2OCCCC[C@H](C)Oc3ccc(NS(=O)(=O)c4ccc(F)cc4)cc3C(=O)N([C@H](C)CO)C[C@H]2C)cc1`, the AC50 in [5] is 55.9 µM (active); in experiment [6], 5.5 µM (active).

In the case of `C[C@@H]1CN([C@H](C)CO)C(=O)c2c(c3ccccc3n2C)-c2ccccc2CO[C@H]1CN(C)C(=O)Nc1cccc(C(F)(F)F)c1`, the AC50 in experiment [5] was > 70 µM (inactive); in experiment [6], 5.56 µM (active).

For `O=C(c1ccc(-c2ccc([N+](=O)[O-])cc2)o1)N1CCCCC1`, the IC50 in [8] is recorded as > 50 µM (not active).

With `O=C(Nc1ncccc1O)c1ccc(S(=O)(=O)NCc2ccco2)cc1`, the AC50 in experiment [2] was 20.7 µM (active).

As to `CC(C)(C)SCCNS(=O)(=O)c1ccc2ccccc2c1`, the IC50 in [1] is reported as > 50 µM (not active).

`CNc1nc(N)c(C(=O)C(C)(C)C)s1`: in [7], the AC50 is 4.57 µM (active).

In the case of `C/C(=N\NC(=O)CCCNc1ccc(C)cc1)c1ccccn1`, the IC50 in [9] was 18.4 µM (active); in experiment [18], 13.6 µM (active). The CC50 is 14.3 µM (active) in experiment [10] and 13.1 µM (active) in [11].

For `Cc1cc(C)cc(Oc2nc(-c3ccccc3)cc(C)c2S(C)(=O)=O)c1`, the IC50 in [1] is on record as 6.25 µM (not active).

For the molecule `CC(=O)n1nc(-c2cccc(C)c2)nc1SCC(=O)Nc1ccccc1`, the IC50 in [8] was 0.731 µM (active).

Values taken from ChEMBL document CHEMBL1201862, “PubChem BioAssay data set” (2004).
